According to patent US9368421B2, “Under-fill material and method for producing semiconductor device” (NITTO DENKO CORPORATION, priority 2011, dated 2016):

Assay: Acid dissociation constant pKa of flux agent
Conditions: for pKa: dilute aqueous solution; for pKa1: first dissociation constant of a dicarboxylic acid
Experimental: The pKa can be determined by measuring an acid dissociation constant Ka=[H3O][B^−]/[BH] under the condition of a dilute aqueous solution of the carboxyl group-containing compound and using the equation of pKa=−log Ka. Here, BH represents a carboxyl group-containing compound, and B^− represents a conjugate base of the carboxyl group-containing compound. The pKa can be measured in such a manner that a hydrogen ion concentration is measured using a pH meter, and the pKa is calculated from the concentration of a relevant substance and the hydrogen ion concentration.

pKa	pKa1	SMILES
4.4	4.4	O=C(O)C1CCCCC1C(=O)O (stereo not shown)
1.2	–	O=C(O)c1c(O)cccc1O [2,6-dihydroxybenzoic acid]
2.5	–	O=C(O)c1ccccc1[N+](=O)[O-] [2-nitrobenzoic acid]
4.9	–	CN(C)c1ccc(C(=O)O)cc1 [p-dimethylaminobenzoic acid]

Continued, compound first:

SMILES	pKa	pKa1
O=C(O)c1ccccc1-c1ccccc1 [2-phenylbenzoic acid]	3.5	–
O=C(O)CCCCCCCCCCC(=O)O [Dodecanedioic acid, dodecanedioic acid]	5	5.0
O=C(O)CCCCCCC(=O)O [Octanedioic acid, octanedioic acid]	4.5	4.5
